The results in this text go back to PubChem BioAssay AID720667 (NMMLSC, 2013).

Calls of active or inactive are those of the source.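 The calls were made as follows: active = over 50% inhibition of phosphorylation of either protein kinase C substrates or the ERK kinase; inactive = both inhibited below 50%.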

As usually defined, the inhibition is the change of the read-out against control, counted positive when it falls.

The test deals with TALL-104 cells, ERK phosphorylation flow cytometry. The test is described as follows: blockers of stimulated ERK phosphorylation in TALL-104 – TALL-104 cells, flow cytometry, CherryPick01, mechanism study for lytic granule exocytosis inhibitor project, late-stage follow-up (AID 720667). The following applies: active compounds read high; dose or concentration not given here.
In the case of `O=c1c2ccccc2sn1-c1ccccc1`, the inhibition is 37.9% (inactive). With `CC1COCC(C)N1C1=C(Cl)C(=O)c2ccccc2C1=O` (configuration not stated) the figure was -16.4% (inactive).

Turning to `O=C1CC(Sc2nnnn2-c2ccccc2)C(=O)N1c1cccc(Cl)c1` (configuration not stated), the inhibition is 67.2%. `CCCCC[C@@H](C)N1C[C@H](COCc2ccccc2)Oc2cc(N3CC[C@@H](N(C)C)C3)ccc2S1(=O)=O`: the inhibition is 37.2% (inactive).

As for `COc1ccccc1CNc1nc(NCc2ccc(C(C)C)cc2)c2sccc2n1`, the inhibition is -14.8% (inactive). With `CN(C)CCNC(=O)c1ccc(-c2cn3c(-c4ccc(Oc5ccccc5)cc4)cnc3cn2)cc1`, the inhibition is -0.1% (inactive).

For the compound `O=C(CN1C(=O)/C(=C\c2cccc(Br)c2)Oc2ccccc21)NCCCN1CCOCC1`, the inhibition was 8% (inactive). Consider `O=CNc1cc(-c2ccsc2)cn2c(-c3ccccc3)cnc12`, for which the inhibition was -17.6% (inactive). Take `Cc1cc(N2CCN(c3nc(-c4ccc([N+](=O)[O-])cc4)cs3)CC2)c2ccccc2n1`: the inhibition is 78.9%.

Regarding `O=C(Cn1sc2ccccc2c1=O)Nc1ccc(F)cc1`, the inhibition was 18.2% (inactive). With `CC(C)(c1ccccc1)c1ccc(OCC(O)CNC2CCN(Cc3ccccc3)CC2)cc1` (configuration not stated) the figure was 36.4% (inactive); with `COc1ccc(-c2cc(NC=O)c3ncc(-c4cccc(OC)c4)n3c2)cc1`, -18.8% (inactive).

In the case of `CC1=NOC(=O)/C1=C/c1ccc(-c2ccc(Cl)cc2)o1`, the inhibition is 40.3% (inactive). For the compound `CCCCC[C@@H](C)N1C[C@@H](COCc2ccccc2)Oc2cc(N3CC[C@@H](N(C)C)C3)ccc2S1(=O)=O`, the inhibition was 51.1%. Consider `COc1ccc(-c2cc(NC=O)c3ncc(-c4ccccc4)n3c2)cc1OC`, for which the inhibition was -2.1% (inactive). For `N#Cc1c(Nc2ccccc2Cl)s[nH]c1=O`, the inhibition was 66.4%. In the case of `COc1ccc(N2C(=O)CC(Sc3nnc(-c4ccccc4)o3)C2=O)cc1` (configuration not stated), the inhibition was 17.4% (inactive).

Consider `CC1=C(C)CS(=O)N(S(=O)(=O)c2ccc(Cl)cc2)C1` (configuration not stated), for which the inhibition is 83.8%. Regarding `O=c1c2ccc(F)cc2sn1-c1ccccc1`, the inhibition is 53.4%. With `CCOC(=O)c1c(NC(=O)COc2ccccc2OCC)sc2c1CC(C)(C)NC2(C)C`, the inhibition was 87.3%. Take `CCCCC[C@@H](C)N1C[C@@H](COCc2ccccc2)Oc2cc(N3CC[C@H](N(C)C)C3)ccc2S1(=O)=O`: the inhibition is 28% (inactive). `CCN(CC)CCCNc1ccc(-c2nnc(-c3ccc(OCC(C)C)cc3)o2)cn1`: the inhibition is -22.6% (inactive). In the case of `COC(=O)c1c(NC(=O)c2nc3ccccc3s2)sc2c1CC(C)(C)NC2(C)C`, the inhibition was 11.8% (inactive). Turning to `Cc1ccc(S(=O)(=O)n2ccc3c(OCCOCCNCc4ccc(F)cc4)cccc32)cc1`, the inhibition is -8.2% (inactive). `O=C(Cn1sc2ccccc2c1=O)NC12CC3CC(CC(C3)C1)C2`: the inhibition was 35.6% (inactive). Take `Cc1ccc(Nc2nc(NCc3ccco3)c3ccccc3n2)cc1`: the inhibition is 1.1% (inactive). The same measure for `COc1ccc(-n2sc3ccccc3c2=O)cc1`: 35% (inactive).
